# Where a name gives a salt, the structure may show the parent alone.
# How the values were obtained:
# [1] = Stability tests of COMPOUND A formulations at 40° C./75% RH (discoloration, viscosity, physical state); type: physicochemical; details: poloxamer gel formulations, even at higher concentrations of the salt; expected
# Description: Table 5 below provides % w/w for COMPOUND A bromide salt polyethylene glycol ointment.
# [2] = Single ascending dose first-in-human study: safety and tolerability; type: in vivo; details: healthy subjects
# Procedure: The objective of this study was to evaluate the safety, tolerability, pharmacokinetics and effect on tactile stimulation of topical formulations of COMPOUND A in healthy subjects.
# (§1) Four single ascending dose cohorts (six active and two placebo subjects per cohort) were evaluated after topical application of a COMPOUND A topical poloxamer gel at an application rate of 82, 164, 328 and 492 μg active moiety/cm^2 on the volar forearm over a 10 cm^2 area. Two concentrations of a COMPOUND A topical poloxamer gel: 1% (0.82% active moiety) and 3% (2.46% active moiety) were evaluated in this study. The 1% and 3% gels used were made as described in Example 1 above. Safety was evaluated via hematology, biochemistry and urinalysis clinical laboratory analyses, electrocardiograms and adverse event collection for 14 days following dose administration. The clinical laboratory analyses included hematocrit; Hgb; MCH; MCHC; MCV; MPV; PLT; RBC; WBC and differentials (neutrophils, lymphocytes, monocytes, eosinophils, and basophils relative and absolute); biochemistry albumin; alkaline phosphatase; ALT; AST; chloride; creatinine (enzymatic); GGT; glucose random; LDH; potassium; sodium; total bilirubin; urea (BUN); uric acid; urinalysis color, clarity, pH, specific gravity, bilirubin, glucose, ketones, leukocytes, nitrite, blood, protein, urobilinogen and microscopic analysis. Local skin tolerability was assessed using a 4-point ordinal scale, and serial plasma samples for PK analysis were collected for up to 7 days post-application. The 4-point ordinal scale used was as follows: 0 (None); 1 (Mild); 2 (Moderate); 3 (Severe) for each of the following: erythema, stinging, itching, burning, desquamation, edema, and pain. Semmes-Weinstein microfilaments were used to assess response to tactile stimulation on the treated area of the forearm; these microfilaments were the same as those commonly used to test patients for diabetic neuropathy.
# [3] = Single ascending dose first-in-human study: tactile stimulation with Semmes-Weinstein microfilaments; type: in vivo; details: healthy subjects, treated area of the forearm, normal skin
# Procedure: as §1, with “The 4-point ordinal scale used was as follows: 0 (None); 1 (Mild); 2 (Moderate); 3 (Severe) for each of the following: erythema, stinging, itching, burning, desquamation, edema, and pain. Semmes-Weinstein microfilaments were used to assess response to tactile stimulation on the treated area of the forearm; these microfilaments were the same as those commonly used to test patients for diabetic neuropathy.” left out
# [4] = Single ascending dose first-in-human study: plasma pharmacokinetics; type: in vivo; details: healthy subjects, topical poloxamer gel, most samples; quantifiable limit
# Procedure: as §1, with “The 4-point ordinal scale used was as follows: 0 (None); 1 (Mild); 2 (Moderate); 3 (Severe) for each of the following: erythema, stinging, itching, burning, desquamation, edema, and pain. Semmes-Weinstein microfilaments were used to assess response to tactile stimulation on the treated area of the forearm; these microfilaments were the same as those commonly used to test patients for diabetic neuropathy.” left out
# [5] = Observations in mice after single topical application (motor function, reflexes, weakness, grip strength, application site); type: in vivo
# Procedure: 3% COMPOUND A in each of the three vehicle formulations prepared as described in Example 1 above—poloxamer (from Table 4 above); hydroxyethylcellulose (HEC) and polyethylene glycol (Ointment) (50 μl) was applied topically to the skin 6 hours prior to the intradermal injection of chloroquine (CQ) (4 mg/ml, 50 μl). […] Following intradermal CQ injection in the ipsilateral neck area, the number of scratches was counted and cumulative counts were recorded by an automated machine for 40 minutes.
# Recovery: The condition of the site of injection was examined and observations of redness, swelling or abrasions due to scratching were made prior to and following scratch counting. Animals were euthanized upon completion of the final observations.
# Different test articles comprising varying concentrations of COMPOUND A in hydroxyethyl cellulose (HEC) formulations of the specification (“Gel”) and in dimethylsulfoxide (DMSO) vehicle were tested on mice according to the pruritis model described in Example 2. The same strain of mice was used and the animals were housed in the same manner. Each treatment group consisted of 8 mice, and test articles Gel+COMPOUND A 0.3%, 1%, 3% and 5%, and DMSO+COMPOUND A 3% and 5%, were applied topically to the skin six hours prior to the intradermal injection of chloroquine (CQ) (4 mg/ml, 50 μl). […] Following intradermal CQ injection in the ipsilateral neck area, the number of scratches were counted and cumulative counts were recorded by the automated machine for 40 minutes. Following observation, animals were euthanized. In selected groups (Gel+3% COMPOUND A and Gel+5% COMPOUND A) plasma was harvested at 7 hours following the scratch counting. […] Harvested plasma samples were stored at −20° C. prior to analysis.
# The carrier gel alone, with no drug, is referred to as “Gel.” Gel and Gel+COMPOUND A 1%,” “Gel+COMPOUND A 2%” and “Gel+COMPOUND A 3% were applied topically to the skin of groups of 8 mice, each of which were subjected to chloroquine injection (CQ; 4 mg/ml, 50μl) according to the pruritis model described in Example 2 at different time points (3 hours, 6 hours and 15 hours) post application of the test or control articles. The same strain of mice as in Example 2 was used, and the animals were housed in the same manner.
# [6] = Tachyphylaxis study: body weight, application site and distress observations; type: in vivo
# Procedure: For all three phases, the mice were subjected to the pruritis model as described in Example 2. Upon completion of the scratching assessment mice were placed in their home cage and examined at 24 hours for any adverse skin reactions. Phase 3 animals were euthanized for blood collection following completion of the scratching counts. The condition of the site of injection was examined and observations of redness, swelling or abrasions due to scratching were made following scratch counting and at 24 hours post drug application Animals were euthanized upon completion of the final observations. One mouse died during anesthesia on day 5 after application of 3% drug and one mouse was euthanized because of weight loss. Blood plasma was collected on day 5 following the behavior in the Phase 3 animals. Plasma samples were stored on dry ice until analysis. Data was collected, tabulated and analyzed as described in Example 1, and the results of each phase are discussed below.
# This study was performed in three phases, to examine the effect of the successive dosing of poloxamer gel formulations according to the present specification, COMPOUND A (1%) COMPOUND A (3%) and COMPOUND A (3% with gel removal 3 hours after application) on scratching behavior after 5 days of treatment. During Phase 1 of this study, four groups of mice (each n=4) received topical poloxamer gel, COMPOUND A (1%) and COMPOUND A (3%) drug. One group received topical application of COMPOUND A (3%), which was removed after 3 hours. To remove the formulation, a piece of gauze that had been saturated with distilled water was used to gently wipe (not rub) the application site from the rostral end to the caudal end 3 times. The skin was then patted dry with clean gauze. If there were lesions present on the skin, then extra care is taken to avoid irritation or redness.
# This treatment was continued for 5 days without any CQ injections. On day 5 all these mice received intradermal CQ 3 hours after the last application of the drug (n=4).
# sodium channel = details: through capsaicin-activated TRPV1 channels; cited from earlier work
# [7] = following single topical application of the drug
structure (smiles),measurement,setting,value
"Cc1ccccc1N(CC[C@H]1CCCC[N+]1(C)C)C1Cc2ccccc2C1 [COMPOUND A methanesulfonate salt, (R)-2-(2-((2,3-dihydro-1H-inden-2-yl)(o-tolyl)amino)ethyl)-1,1-dimethylpiperidin-1-ium]",Discoloration,[1],little to no discoloration
"Cc1ccccc1N(CC[C@H]1CCCC[N+]1(C)C)C1Cc2ccccc2C1 [COMPOUND A, (R)-2-(2-((2,3-dihydro-1H-inden-2-yl)(o-tolyl)amino)ethyl)-1,1-dimethylpiperidin-1-ium]",Local tolerability of the gels (4-point ordinal scale),[2]; topical poloxamer gel 1% and 3%,Excellent local tolerability
same,Tolerability of all doses,"[2]; topical poloxamer gel 1% and 3%, single dose 82, 164, 328 and 492 μg active moiety/cm^2, volar forearm 10 cm^2",well-tolerated
same,Dose-limiting toxicities or treatment-related adverse events,[2]; up to the highest administered dose (492 μg active moiety/cm^2),No dose-limiting toxicities or treatment-related adverse events were reported
same,Tactile stimulation assessments,[3],No trends were noted
same,Plasma concentration,[4],< 10 pg/mL
same,Scratching at the site of application prior to injection of CQ,"[5]; 3% in HEC gel, poloxamer gel or ointment",did not display scratching
same,Weakness,[5]; following single topical application,No weakness was observed
same,Motor function (measured by placing and stepping),[5]; [7],normal
same,Pinna and corneal reflexes,[5]; [7],normal
same,Recovery,"[6]; Phase 1, observed until day 9",they all recovered their weight and from their redness
same,Body weight,"[6]; Phase 1, poloxamer gel 1% and 3%, 5 days",slight drop in the weight
same,Lethargy or distress,"[6]; Phase 1, poloxamer gel, 5 days",No signs of lethargy or distress were observed
same,Skin at the site of application,"[6]; Phase 1, poloxamer gel, 5 days (scaly by day 3; redness Day 4 and 5, no gel removal)",scaly texture at the site of application
same,Body weight,"[6]; Phase 2, poloxamer gel 0.1% and 0.3%, 5 days",No weight loss was observed
CC[N+](CC)(CC)CC(=O)Nc1c(C)cccc1C [QX-314],Sodium channel activity,sodium channel,permeates through capsaicin-activated TRPV1 channels and blocks sodium channel activity

# Reference: patent publication US20220000853A1, “FORMULATIONS, METHODS, KIT, AND DOSAGE FORMS FOR IMPROVED STABILITY OF AN ACTIVE PHARMACEUTICAL INGREDIENT” (Asana BioSciences, LLC, priority 2018, published 2022)
